Measurements published in paper PMC7177633, “Effective Cellular Transport of Ortho-Halogenated Sulfonamide Derivatives of Metformin Is Related to Improved Antiproliferative Activity and Apoptosis Induction in MCF-7 Cells” (International Journal of Molecular Sciences, 2020).
Read-outs that look alike come from different tables or passages of the source.

Key:
MCF-7 cells [1] = details: metformin, cited from earlier work
OCTs [2] = test: Inhibition of [14C]choline uptake in MCF-7 cells (competitive inhibition assay); type: cell-based, human; details: for IC50: mean ± SD (n = 3)
Procedure: (§1) The following day, after removal of the culture medium, the cells were carefully washed with prewarmed HBSS (Hanks’ balanced salt solution) containing 125 mM NaCl, 4.8 mM KCl, 1.2 mM MgSO4, 1.2 mM KH2PO4, 1.3 mM CaCl2, 5.6 mM glucose and 25 mM HEPES (pH 7.4). […] Then, the cells were washed three times with ice-cold HBSS (500 μL) and were lysed with 250 μL of 0.1-M NaOH in the ice bath, and the lysate was mixed with 1.0 mL of an emulsifier safe cocktail (PerkinElmer, Waltham, MA, USA). The radioactivity was measured by liquid scintillation counting (MicroBeta^2 counter, PerkinElmer, Waltham, MA, USA). The studies were carried out with the use of at least three replicates from the same cell passage.

MCF-7 cells [3] = tested on: MCF-7 cells; parameters: method as in PMID 30913467; details: up to 3000 µmol/L; cited from earlier work
MDA-MB-231 cells [4] = details: metformin, cited from earlier work
MDA-MB-231 cells [5] = tested on: MDA-MB-231 cells; parameters: method as in PMID 30913467; details: up to 3000 µmol/L; cited from earlier work
OCT3-BT20 cells = tested on: OCT3-BT20 cells; parameters: method as in PMID 26669511; details: OCT3-overexpressing BT-20 vs BT-20; cited from earlier work
OCTs [6] = test: Inhibition of [14C]choline uptake in MDA-MB-231 cells (competitive inhibition assay); type: cell-based, human; details: for IC50: mean ± SD (n = 3)
Procedure: as §1

MDA-MB-231 cells [7] = test: Cell viability WST-1 assay, MDA-MB-231; type: cell-based; details: Homo sapiens, WST-1, 24 h; for IC50: MDA-MB-231, mean ± SD (n = 6–8), read-out: IC50 inhibition of MDA-MB-231 cells' viability
Procedure: (§2) The viability of MCF-7 and MDA-MB-231 cells was determined using a colorimetric WST-1 assay (Takara, Takara Bio Europe, Saint-Germain-en-Laye, France). Both cell lines were seeded at a density of 1 × 10^4 per well on 96-well plates and were cultured for 24 h to obtain 70% confluence. The following day, the cells were treated with various concentrations of compounds 1–9 diluted in the cell culture medium ([…]). The cells were incubated with tested compounds or pure medium (control) for 24 h (37 °C, 5% CO2). Afterwards, the cells were washed with 100 μL of culture medium, and then, the reagent dissolved in the medium was added (100 μL). The plates were incubated at the standard condition for 1.5 h, and the absorbance was read at 450 nm using a microplate reader (iMARK, Bio-Rad, Bio-Rad Laboratories Inc., Hercules, CA, USA). […] The results of samples treated with the test compounds were expressed as a percentage of the control samples. The data were presented as mean ± standard deviation (SD), n = 8. IC50 values (the concentration of the tested compound that inhibited cell growth by 50%) were calculated using a concentration-response curve (GraphPad Prism, Software, San Diego, CA, USA).
(§3) The concentrations contributing to the 50% of cell growth inhibition (IC50) were calculated using nonlinear regression analysis (fitting the curve to log (concentration) vs. cellular response).

MCF-7 cells [8] = test: Cellular uptake of metformin sulfonamides in MCF-7 cells (HPLC); type: in vitro ADME, human; details: for uptake into MCF-7 cells: 10 min incubation, 37 °C
Procedure: (§4) The uptake of metformin sulfonamides (1–9) in MCF-7 and MDA-MB-231 cells was studied by incubation of the cells with 10−3000 μmol/L of compounds in 250 μL of prewarmed HBSS buffer at 37 °C for 10 min. Subsequently, the cells were then washed three times with 500 μL of ice-cold HBSS and lysed with 250 μL of 0.1-M NaOH. The samples were collected, centrifuged (5 min, 1400 rpm) and the supernatants were analyzed by the HPLC method. The concentration of each compound in the cells was calculated on the basis of the standard curve prepared by spiking known amounts of every compound on the cell layers in 250 μL of 0.1-M NaOH.
(§5) The concentration of the studied sulfonamides (1–9) was assessed using the HPLC system, consisting of an Agilent 1100 binary pump (Agilent Technologies Inc., Wilmington, DE, USA), an 1100 micro-vacuum degasser, an HP 1050 autosampler and an HP 1050 variable wavelength detector (operated at 235 nm). The chromatographic separations of compounds 1–9 were conducted on an Agilent Zorbax SB-C18 analytical column (4.6 mm × 150 mm, 5 μm) using an isocratic elution of water containing 0.1% formic acid (pH ca. 3.0) and acetonitrile containing 0.1% formic acid with a changing ratio, depending on the compound. The analyses were conducted at room temperature (RT). The detailed procedure of chromatographic analysis was described in our previous paper. The studies were conducted in quadruplicates.
(§6) The protein concentrations in representative wells of each plate were assessed using a Bio-Rad protein assay according to the Bradford method (EnVision, PerkinElmer, Inc., Waltham, MA, USA).

MDA-MB-231 cells [9] = test: Cellular uptake of metformin sulfonamides in MDA-MB-231 cells (HPLC); type: in vitro ADME, human; details: for uptake into MDA-MB-231 cells: 800 μmol/L, 10 min incubation, 37 °C
Procedure: as §4, §5, §6

MCF-7 cells [10] = test: Uptake in the presence of OCT and MATE inhibitors, MCF-7 cells; type: in vitro ADME, human; details: for interactions with OCT, PMAT and MATE1 transporters, MCF-7: summary from uptake with inhibitors
Procedure: (§7) The uptake of sulfonamide derivatives of metformin (1–9) in MCF-7 and MDA-MB-231 cells was studied also in the presence of disopyramide, cimetidine (OCT1 and 3 inhibitors), lopinavir (OCT and PMAT inhibitor) and methenamine (MATE and OCT2 inhibitors). The cells were incubated (37 °C, 10 min) with compounds 1–9 at concentrations of 400 and 800 μmol/L and inhibitors (disopyramide, cimetidine, lopinavir or methenamine) in 250 μL of prewarmed HBSS buffer. The protocol of determination of the compound concentration was as described above.

MDA-MB-231 cells [11] = test: Uptake in the presence of OCT and MATE inhibitors, MDA-MB-231 cells; type: in vitro ADME, human; details: for interactions with OCT, PMAT and MATE1 transporters, MDA-MB-231: summary from uptake with inhibitors
Procedure: as §7

MCF-7 cells [12] = test: Cell viability WST-1 assay, MCF-7; type: cell-based; details: Homo sapiens, MCF7; WST-1, 24 h, mean ± SD (n = 6–8); read-out: IC50 inhibition of MCF-7 cells' viability
Procedure: as §2, §3

[13] = reported previously, ref Markowicz-Piasecka et al., 2019
[14] = Eadie-Hofstee analysis, transporter I
[15] = Eadie-Hofstee analysis, transporter I, read-out: Km, transporter I, MCF-7
[16] = Eadie-Hofstee analysis, transporter II
[17] = Eadie-Hofstee analysis, transporter II, read-out: Km, transporter II, MCF-7
[18] = Eadie-Hofstee analysis, transporter I, read-out: Km, transporter I, MDA-MB-231
[19] = Eadie-Hofstee analysis, transporter II, read-out: Km, transporter II, MDA-MB-231
[20] = Michaelis-Menten curve, read-out: Km MDA-231 cells (Michaelis Menten curves)
[21] = compound and inhibitor 400 and 800 µmol/L, 10 min, 37 °C

Row | IC50 (MDA-MB-231 cells [7]) [µM] | uptake into MCF-7 cells (MCF-7 cells [8]; 800 μmol/L) [nmol/min/mg protein] | uptake into MDA-MB-231 cells (MDA-MB-231 cells [9]) [nmol/min/mg protein] | IC50 (OCTs [2]) [µM] | uptake in the presence of disopyramide, MCF-7 (MCF-7 cells [10]; [21]) | uptake in the presence of lopinavir, MCF-7 (MCF-7 cells [10]; [21]) | interactions with OCT, PMAT and MATE1 transporters, MCF-7 (MCF-7 cells [10]) | interactions with OCT, PMAT and MATE1 transporters, MDA-MB-231 (MDA-MB-231 cells [11]) | IC50 (MCF-7 cells [12]) [µM] | IC50 (OCTs [6]) [µM] | Structure (SMILES) | Vmax, transporter I, MCF-7 (MCF-7 cells [8]; [14]) [nmol/min/mg] | Km (MCF-7 cells [8]; [15]) [mM] | Vmax, transporter II, MCF-7 (MCF-7 cells [8]; [16]) [nmol/min/mg] | Km (MCF-7 cells [8]; [17]) [mM] | Vmax, transporter I, MDA-MB-231 (MDA-MB-231 cells [9]; [14]) [nmol/min/mg] | Km (MDA-MB-231 cells [9]; [18]) [mM] | Vmax, transporter II, MDA-MB-231 (MDA-MB-231 cells [9]; [16]) [nmol/min/mg] | Km (MDA-MB-231 cells [9]; [19]) [mM] | Vmax MDA-231 cells (Michaelis Menten curves) (MDA-MB-231 cells [9]; Michaelis-Menten curve) [nmol/min/mg] | Km (MDA-MB-231 cells [9]; [20]) [mM] | also measured
1 |  |  |  |  |  |  |  |  |  |  | CN(C)C(=N)N=C(N)N [Metformin] |  |  |  |  |  |  |  |  |  |  | Vmax MCF-7 (Michaelis Menten curves) (MCF-7 cells [1]; [13]): 0.801 ± 0.296 nmol/min/mg; Km (MCF-7 cells [1]; reported previously, ref Markowicz-Piasecka et al., 2019, read-out: Km MCF-7 (Michaelis Menten curves)): 5.58 ± 1.56 mM; uptake into MCF-7 cells (MCF-7 cells [1]): 0.107 ± 0.006 nmol/min/mg of proteins; maximal inhibition of [14C] choline uptake (OCTs [2]; 2400 μmol/L): 34.3%; effect on MCF-7 growth (MCF-7 cells [3]): did not significantly affect; Vmax MDA-231 cells (Michaelis Menten curves) (MDA-MB-231 cells [4]; [13]): 0.718 ± 0.181 nmol/min/mg; Km (MDA-MB-231 cells [4]; reported previously, ref Markowicz-Piasecka et al., 2019, read-out: Km MDA-231 cells (Michaelis Menten curves)): 3.38 ± 0.952 mM; uptake into MDA-MB-231 cells (MDA-MB-231 cells [4]): 0.117 ± 0.010 nmol/min/mg of proteins; effect on MDA-MB-231 growth (MDA-MB-231 cells [5]): did not significantly affect; metformin uptake in OCT3-BT20 cells relative to BT-20 cells (OCT3-BT20 cells): more than 13 fold; maximal inhibition of [14C] choline uptake (OCTs [6]; 2400 μmol/L): 29.9%
2 | 2110 ± 137 | 1.11 ± 0.16 | 0.75 ± 0.29 | 2060 ± 58.4 | significantly reduced | significantly decreased | OCT1, PMAT, MATE1 | OCT1, OCT3, MATE1 | 1140 ± 139 | 2490 ± 211 | CN(C)C(=N)N=C(N)NS(=O)(=O)c1ccc(Br)cc1 [Compound 6] | 0.7898 ± 0.12 | 0.308 ± 0.102 | 13.64 ± 1.55 | 8.93 ± 1.1 | 2.644 ± 0.22 | 1.93 ± 0.223 | 2.091 ± 0.15 | 2.11 ± 0.172 | 4.044 ± 1.302 | 3.75 ± 1.6 | uptake in the presence of methenamine, MCF-7 (MCF-7 cells [10]; [21]): significantly decreased; uptake in the presence of cimetidine, MDA-MB-231 (MDA-MB-231 cells [11]; [21]): significantly decreased; uptake in the presence of disopyramide, MDA-MB-231 (MDA-MB-231 cells [11]; [21]): significantly decreased; uptake in the presence of methenamine, MDA-MB-231 (MDA-MB-231 cells [11]; [21]): significantly decreased
3 |  | 0.357 ± 0.112 | 0.021 ± 0.002 | 1057 ± 7.5 |  |  | PMAT | OCT1, OCT3 | 422 ± 32.8 | 1380 ± 14 | CN(C)C(=N)N=C(N)NS(=O)(=O)c1ccc(F)cc1 [Compound 9] |  |  |  |  | 0.097 ± 0.015 | 1.88 ± 0.429 | 0.053 ± 0.012 | 2.22 ± 0.618 |  |  | viability at 3000 µM (MDA-MB-231 cells [7]; MDA-MB-231, 24 h, 3000 µmol/L, read-out: percentage of viability of MDA-MB-231 cells): ~60%
4 | 844 ± 135 | 2.669 ± 0.040 |  | 2923 ± 9.1 | profoundly elevated | profoundly elevated | OCT1, OCT3, PMAT | OCT1, OCT3 | 533 ± 87.4 | 4449 ± 18.1 | CN(C)C(=N)N=C(N)NS(=O)(=O)c1cccc(Cl)c1 [Compound 2] | 19.2 ± 2.31 | 4.01 ± 0.696 | 24.91 ± 5.44 | 7.47 ± 1.82 | 0.077 ± 0.008 | 2.4 ± 0.353 | 0.111 ± 0.016 | 5.47 ± 0.73 | 0.157 ± 0.129 | 6.75 ± 1.73 | Vmax MCF-7 (Michaelis Menten curves) (MCF-7 cells [8]; Michaelis-Menten curve): 34.4 ± 17.2 nmol/min/mg; Km (MCF-7 cells [8]; Michaelis-Menten curve, read-out: Km MCF-7 (Michaelis Menten curves)): 9.05 ± 1.52 mM; uptake in MCF-7 cells relative to metformin (MCF-7 cells [8]; fold higher than parent drug metformin, 800 μmol/L): approximately 25 fold; uptake in the presence of cimetidine, MCF-7 (MCF-7 cells [10]; [21]): inhibited; uptake in the presence of cimetidine, MDA-MB-231 (MDA-MB-231 cells [11]; [21]): no significant differences; uptake in the presence of disopyramide, MDA-MB-231 (MDA-MB-231 cells [11]; [21]): no significant differences; uptake in the presence of lopinavir, MDA-MB-231 (MDA-MB-231 cells [11]; [21]): no significant differences; uptake in the presence of methenamine, MDA-MB-231 (MDA-MB-231 cells [11]; [21]): no significant differences
